{"source": "patent US20030150812A1", "about": "“Novel parallel throughput system” (priority 2001, published 2003)", "key": {"[1]": {"biological_target": "α3β4 nicotinic receptor (Homo sapiens, UniProt P30926+P32297)", "sequence (P32297 32-505)": "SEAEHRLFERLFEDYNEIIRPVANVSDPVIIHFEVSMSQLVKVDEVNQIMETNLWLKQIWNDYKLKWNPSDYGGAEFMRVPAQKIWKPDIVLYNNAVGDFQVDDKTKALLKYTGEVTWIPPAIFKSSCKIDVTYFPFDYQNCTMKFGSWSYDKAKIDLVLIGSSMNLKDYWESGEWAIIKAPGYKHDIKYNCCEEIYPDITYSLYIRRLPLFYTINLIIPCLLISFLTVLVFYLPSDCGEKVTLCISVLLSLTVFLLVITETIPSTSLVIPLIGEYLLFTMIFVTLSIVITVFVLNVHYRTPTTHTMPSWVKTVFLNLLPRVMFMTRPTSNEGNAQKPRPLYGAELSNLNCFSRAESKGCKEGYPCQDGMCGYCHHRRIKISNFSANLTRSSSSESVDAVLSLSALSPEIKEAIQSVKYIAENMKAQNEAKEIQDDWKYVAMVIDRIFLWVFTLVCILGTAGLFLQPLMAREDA", "sequence (P30926 22-498)": "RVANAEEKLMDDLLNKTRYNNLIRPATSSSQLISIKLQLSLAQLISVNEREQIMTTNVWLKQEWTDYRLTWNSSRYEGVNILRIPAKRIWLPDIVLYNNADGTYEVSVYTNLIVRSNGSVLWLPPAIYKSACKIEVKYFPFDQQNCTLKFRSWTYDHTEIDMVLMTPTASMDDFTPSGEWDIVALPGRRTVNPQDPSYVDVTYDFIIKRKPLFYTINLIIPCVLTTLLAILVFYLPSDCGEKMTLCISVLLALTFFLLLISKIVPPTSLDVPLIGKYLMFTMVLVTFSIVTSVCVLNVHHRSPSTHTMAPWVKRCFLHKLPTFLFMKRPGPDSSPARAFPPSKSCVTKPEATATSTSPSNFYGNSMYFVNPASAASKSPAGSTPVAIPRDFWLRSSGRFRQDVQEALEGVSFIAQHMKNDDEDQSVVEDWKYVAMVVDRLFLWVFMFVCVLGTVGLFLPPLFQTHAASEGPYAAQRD", "settings": "Column B with α3β4, 24 cm, 50 nM injection, 10 mM Amm Acetate pH 7.4 and 1 nM dinitrobenzoic acid, 261 nm", "procedure": "(§1) A parallel screen was run using two separate columns containing the different nicotinic receptors α3β2 and […] in the separate columns. […] The mobile phase contained 10 mM Amm Acetate at pH 7.4 and 1 nM Dinitrobenzoic acid. The columns were 24 cm in length."}, "[2]": {"biological_target": "α3β2 nicotinic receptor (Homo sapiens, UniProt P17787+P32297)", "sequence (P32297 32-505)": "as the sequence (P32297 32-505) above", "sequence (P17787 26-502)": "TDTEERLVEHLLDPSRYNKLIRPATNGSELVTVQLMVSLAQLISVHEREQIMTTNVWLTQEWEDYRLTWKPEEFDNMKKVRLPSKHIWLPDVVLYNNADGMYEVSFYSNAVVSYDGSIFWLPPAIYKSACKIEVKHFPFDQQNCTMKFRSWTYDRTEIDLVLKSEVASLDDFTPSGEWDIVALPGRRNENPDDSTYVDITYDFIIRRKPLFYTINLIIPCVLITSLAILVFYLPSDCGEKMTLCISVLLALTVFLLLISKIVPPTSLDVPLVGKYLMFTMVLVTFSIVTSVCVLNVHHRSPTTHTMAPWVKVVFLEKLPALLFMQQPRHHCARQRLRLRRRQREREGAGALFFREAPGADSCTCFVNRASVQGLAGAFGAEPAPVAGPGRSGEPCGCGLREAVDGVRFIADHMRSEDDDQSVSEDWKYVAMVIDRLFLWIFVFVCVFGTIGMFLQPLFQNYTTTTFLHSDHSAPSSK", "settings": "Column A with α3β2, 24 cm, 50 nM injection, 10 mM Amm Acetate pH 7.4 and 1 nM dinitrobenzoic acid, 261 nm", "procedure": "as §1"}}}
{"compound": "CN1CCCC1c1cccnc1", "note": "(centres unmarked) [nicotine]", "values": [{"measurement": "time on receptor column", "setting": "[1]", "value": 0.98, "unit": "min"}, {"measurement": "time on receptor column", "setting": "[2]", "value": 2.25, "unit": "min"}]}
